Measured values from US10933038B2, “Use of (benzenesulfonamido) benzamide compounds for inhibiting liver fibrosis” (Hebei Medfaith Pharmaceutical Technology Co., Ltd., priority 2015, dated 2021).

Experiments:
[1] = system: BDL model rat; experiment: Masson staining of liver tissue of BDL rats; format: in vivo; settings: 100 mg/kg i.p., 14 days
Method: (§1) SD male rats (with a body weight of 180-200 g) were randomly divided into sham operation group, BDL model group and 16-4 administration group, wherein sham operation group included 6 rats, BDL model group included 8 rats, and 16-4 administration group included 6 rats. Animals were fasted for 12 hours before surgery. After anesthetization with isoflurane, the abdomen of rat was opened under aseptic conditions, the liver was lifted, the duodenum was pulled aside, and 2-3 cm common bile duct was separate. Ligations were performed twice with silk thread No. 000 at the place proximal to duodenum and the place proximal to porta hepatis, respectively. The common bile duct was cut off at the middle of the two ligation places. After the liver was put back, the cut was sutured. In sham operation group, the abdomen was just opened, and then sutured. After recovery from anesthesia, the animals were subjected to normal diet, with free access to water. 2 days after surgery, the compound 16-4 (100 mg/kg) was intraperitoneally injected to 16-4 administration group, and normal saline was intraperitoneally injected to sham operation group and BDL model group, once a day. After administration for 14 days, samples such as urine, blood, bile, liver, kidney and ileum were collected from the animals after being fasted for 12 hours. […]

[2] = system: BDL model rat; experiment: serum liver function in BDL model rat; format: in vivo; settings: 100 mg/kg i.p. once a day for 14 days
Method: (§2) SD male rats (with a body weight of 180-200 g) were randomly divided into sham operation group, BDL model group and 16-4 administration group, wherein sham operation group included 6 rats, BDL model group included 8 rats, and 16-4 administration group included 6 rats. Animals were fasted for 12 hours before surgery. After anesthetization with isoflurane, the abdomen of rat was opened under aseptic conditions, the liver was lifted, the duodenum was pulled aside, and 2-3 cm common bile duct was separate. Ligations were performed twice with silk thread No. 000 at the place proximal to duodenum and the place proximal to porta hepatis, respectively. The common bile duct was cut off at the middle of the two ligation places. After the liver was put back, the cut was sutured. In sham operation group, the abdomen was just opened, and then sutured. After recovery from anesthesia, the animals were subjected to normal diet, with free access to water. 2 days after surgery, the compound 16-4 (100 mg/kg) was intraperitoneally injected to 16-4 administration group, and normal saline was intraperitoneally injected to sham operation group and BDL model group, once a day. After administration for 14 days, samples such as urine, blood, bile, liver, kidney and ileum were collected from the animals after being fasted for 12 hours.
Blood samples were taken from rats of each group in Example 6, and the rats were fasted for 12 h before taking samples. The rats were anesthetized with 10% chloral hydrate, and blood was collected via aorta ventralis, on standing at room temperature for 1 h, and centrifuged at 3000 rpm for 5 min. The serum was tested for serum biochemical indexes.

[3] = system: TGF-β1-induced LX2 cells; experiment: real-time PCR assay in TGF-β1-induced LX2 cells; format: cell-based, human; settings: TGF-β1 (2 ng/ml)-induced LX2 cells, 1, 5 and 10 μmmol/L, 24 h
Method: (§3) In DMEM (Gibco) medium containing 10% fetal bovine serum, LX2 cells were cultured at 37° C., 5% CO2. The cells were spread on a 6-well plate at 1×10^5 cells per well. After culture for 24 h, the original medium was discarded, the cells were washed with PBS once, and DMEM (Gibco) medium without 10% fetal bovine serum was added. […] After further culture for 24 h, the samples were taken.
In accordance with the TRizol method, the total RNA in LX2 cells were extracted, and in accordance with the operations described in the instruction of Roche Transcriptor First Strand cDNA Synthesis Kit, the total RNA of LX2 was reverse transcribed into cDNA. The cDNA obtained, sterile water, Roche FastStart Universal Probe Master (Rox) and ABI TaqMan probes (COL1A1, TGF-β1, MMP2) were used to prepare a 20 μL reaction system, which was analyzed by ABI 7500 Fast Real-Time PCR System.

[4] = system: BDL model rat; experiment: HE staining of liver tissue of BDL rats; format: in vivo; settings: 100 mg/kg i.p., 14 days
Method: as §2
The liver tissue samples were taken from rats of each group in Example 6, and the rats were fasted for 12 hours before taking samples. The rats were anesthetized with 10% chloral hydrate and the liver tissue was taken. The hepatic lobar tissue blocks were cut off and fixed in 4% neutral formaldehyde solution. By carrying out the steps such as dehydration, paraffin embedding, slicing and baking, paraffin slices were made. Hematoxylin-eosin (HE) staining solution was used for staining, and changes in pathological structure of rat liver tissue were observed.

[5] = system: ANIT-induced liver injury; experiment: alpha-naphthylisothiocyanate (ANIT)-induced liver injury model, HE staining; format: in vivo, mouse; settings: 400 mg/kg intragastric, ANIT 75 mg/kg, 48 h after induction
Method: After further administration for 2 days (i.e. after induction with ANIT for 48 h), liver tissues were harvested, and subjected to pathological section and HE staining.

[6] = system: BDL model rat; experiment: Western blot of proteins associated with liver fibrosis in liver tissue of BDL rats; format: in vivo; settings: 100 mg/kg i.p., 14 days
Method: as §1, with “day.” for “day. After administration for 14 days, samples such as urine, blood, bile, liver, kidney and ileum were collected from the animals after being fasted for 12 hours.”
Liver tissues (80-100 mg) were taken from the rats of each group in Example 6, and 1 mL RAPI lysis solution (containing 1% PMSF) was added. […] The supernatant was taken, and the protein concentration was determined by BCA method. […]

[7] = system: TGF-β1-induced LX2 cells; experiment: Western blot assay in TGF-β1-induced LX2 cells; format: cell-based, human; settings: TGF-β1 (2 ng/ml)-induced LX2 cells, 1, 5 and 10 μmmol/L, 24 h
Method: as §3
Proteins in LX2 cells were extracted with RAPI lysis solution (containing 1% PMSF), and the protein concentration was determined by BCA method. The sample was loaded at 20 μg/20 μL, subjected to polyacrylamide gel electrophoresis, transferred to a membrane, blocked with 5% skim milk, incubated with a primary antibody, washed with PBST, incubated with a secondary antibody, and imaged with ChemiImager 5500 imaging system.

[8] = system: COL1A1 promoter; experiment: dual-luciferase reporter assay of COL1A1 promoter activity in LX2 cells; format: cell-based, human; settings: TGF-β1 2 ng/ml, 1, 5 and 10 μmol/L, 24 h
Method: At 37° C., 5% CO2, human hepatic stellate cells LX2 were cultured in DMEM medium containing 10% fetal bovine serum (Gibco). After the cells reached a confluence of about 95%, the cells were spread onto a 96-well plate at 2×10^4 cells per well. After the cells reached a confluence of about 90%, the cells were subjected to serum-free culture in DMEM medium (Gibco) containing no fetal bovine serum for 24 h. […] The cells were further cultured for 24 h. In accordance with the operations described in the instruction of Dual-Glo™ Luciferase Assay System, the medium was discarded, and the cells were washed with PBS once. Cells were lysed by the addition of 1×PLB (20 μL/well) (within 15 min), luciferase substrate (50 μL/well) was added for assay, and a stop solution (50 μL/well) was added for assay.

[9] = system: BDL model rat; experiment: hydroxyproline content in liver tissue of BDL rats; format: in vivo; settings: 100 mg/kg i.p., 14 days
Method: as §1, with “water.” for “water. 2 days after surgery, the compound 16-4 (100 mg/kg) was intraperitoneally injected to 16-4 administration group, and normal saline was intraperitoneally injected to sham operation group and BDL model group, once a day. After administration for 14 days, samples such as urine, blood, bile, liver, kidney and ileum were collected from the animals after being fasted for 12 hours.”
(2) Hydroxyproline is specific to collagen fibrils, and the content of hydroxyproline can reflect the extent of liver fibrosis. Liver tissue samples (80-100 mg) were taken from the rats of each group in Example 6, and in accordance with the instruction of Hydroxyproline Assay Kit (purchased from Nanjing Jiancheng Bioengineering Institute), the content of hydroxyproline in the liver tissues was determined.

[10] = system: Kunming mice; experiment: safety in Kunming mice, single intragastric dose, 14 days observation; format: in vivo; settings: 50-2000 mg/kg; for change in body weight (relative body weight Day 14/Day 1): 14 days after administration; for death / signs of intoxication: 14 days observation
Method: In the example, the compounds 16-4 and 17-15 were tested for their safety in Kunming mice.
Kunming mice (with a body weight of 18-22 g) were randomly divided into control group, 16-4 administration group, and 17-15 administration group, with 4 mice for each group, administered at a dose of 0 mg/kg, 50 mg/kg, 500 mg/kg, 1000 mg/kg and 2000 mg/kg. At the first day of experiment, drugs were intragastrically administered to 16-4 administration group and 17-15 administration group, and normal saline was administered to control group. The body weight and physical conditions of mice (for example, being short of breath or not, having bleeding spots in skin or not, etc.) and whether mice died or not were recorded every day. After observation for 14 days, the mice were sacrificed.

[11] = system: BDL model rat; experiment: real-time PCR of genes associated with liver fibrosis in liver tissue of BDL rats; format: in vivo; settings: 100 mg/kg i.p., 14 days
Method: as §1, with “water.” for “water. 2 days after surgery, the compound 16-4 (100 mg/kg) was intraperitoneally injected to 16-4 administration group, and normal saline was intraperitoneally injected to sham operation group and BDL model group, once a day. After administration for 14 days, samples such as urine, blood, bile, liver, kidney and ileum were collected from the animals after being fasted for 12 hours.”
Liver tissues (80-100 mg) were taken from the rats of each group in Example 6, and 1 mL TRizol was added. […] The cDNA obtained, sterile water, Roche FastStart Universal Probe Master (Rox) and ABI TaqMan probes were used to prepare a 20 μL reaction system, which was analyzed by ABI 7500 Fast Real-Time PCR System.

Compound	fibrosis of liver tissues (Masson staining) [1]	liver function of BDL rats [2]	alanine aminotransferase ALT ([2]; serum, BDL rat, n = 6) [U/L]	alkaline phosphatase ALP ([2]; serum, BDL rat, n = 6) [U/L]	γ-glutamyltransferase γ-GGT ([2]; serum, BDL rat, n = 6) [U/L]	expression levels of mRNA of COL1A1, TGF-β1 and MMP2 [3]	bile duct proliferation [4]	pathological structure of the liver tissues [4]	tissue necrosis [4]	liver injury (HE staining of liver tissue slices) compared to ANIT-induced group [5]	expression of COL1A1, TGF-β1, MMP2 and α-SMA protein [6]	expression of COL1A1, TGF-β1, MMP2 and α-SMA protein [7]	activity of COL1A1 promoter (relative luciferase activity) [8]	content of hydroxyproline in rat liver tissues [9]	change in body weight (relative body weight Day 14/Day 1) [10]	death [10]	signs of intoxication [10]	expression of genes associated with liver fibrosis (COL1A1, TGF-β1, MMP2, α-SMA (ACTA2), TIMP1, TIMP2 and SPP1) [11]
O=C(Nc1cc(Cl)c(Cl)c(Cl)c1)c1ccccc1NS(=O)(=O)c1cccc([N+](=O)[O-])c1 [16-4, N-(3,4,5-trichlorophenyl)-2-(3-nitrobenzenesulfonamido) benzamide]	significantly inhibit the fibrosis of liver tissues	could improve the liver function	68.20 ± 11.86	383.60 ± 56.45	27.40 ± 10.26	significantly inhibit	significantly inhibited bile duct proliferation	significantly improve	significantly reduced tissue necrosis	had the liver injury improved	significantly inhibit	significantly inhibit	inhibit the activity of COL1A1 promoter in a dose-dependent manner	significantly reduce	no significant decrease in body weight	no death occurred	no signs of intoxication were observed	significantly reduce
O=C(Nc1ccc(Cl)c(Cl)c1)c1ccccc1NS(=O)(=O)c1cccc(OC(F)(F)F)c1 [17-15, N-(3,4-dichlorophenyl)-2-(3-trifluoromethoxybenzenesulfonamido) benzamide]						significantly inhibit						significantly inhibit	inhibit the activity of COL1A1 promoter in a dose-dependent manner		no significant decrease in body weight	no death occurred	no signs of intoxication were observed	
